pEC50: −log10 of the molar value.
Key:
ABCG2 [1] = target: T1, ABCG2 (Homo sapiens, UniProt Q9UNQ0); assay: ABCG2 ATPase stimulation in membrane vesicles; supported by HPLC accumulation in HEK293/ABCG2-WT cells; type: biochemical; set-up: ABCG2 membrane vesicles (PREDEASY ATPase Kit)
T1 sequence (Q9UNQ0 1-655): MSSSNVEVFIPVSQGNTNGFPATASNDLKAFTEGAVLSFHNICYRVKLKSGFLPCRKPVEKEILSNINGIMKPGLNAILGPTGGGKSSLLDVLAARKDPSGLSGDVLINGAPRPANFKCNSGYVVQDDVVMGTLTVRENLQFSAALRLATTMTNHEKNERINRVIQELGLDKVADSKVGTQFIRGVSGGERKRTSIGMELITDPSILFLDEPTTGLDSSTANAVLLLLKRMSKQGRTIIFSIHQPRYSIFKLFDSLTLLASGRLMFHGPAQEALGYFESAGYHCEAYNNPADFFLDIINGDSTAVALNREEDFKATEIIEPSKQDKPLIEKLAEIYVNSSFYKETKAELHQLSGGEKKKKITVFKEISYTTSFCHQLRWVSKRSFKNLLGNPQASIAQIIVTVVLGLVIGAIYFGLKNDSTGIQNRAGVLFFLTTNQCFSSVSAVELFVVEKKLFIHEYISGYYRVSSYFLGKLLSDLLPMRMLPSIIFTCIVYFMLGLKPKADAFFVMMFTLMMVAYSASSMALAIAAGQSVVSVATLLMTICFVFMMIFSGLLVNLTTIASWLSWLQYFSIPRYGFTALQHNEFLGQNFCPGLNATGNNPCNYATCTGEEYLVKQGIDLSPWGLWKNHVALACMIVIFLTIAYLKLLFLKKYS

ABCG2 [2] = target: T1, ABCG2; assay: [3H]-mitoxantrone accumulation in NCI-H460 and NCI-H460/TPT10 cells, restored by Ko143; type: cell-based; set-up: ABCG2-overexpressing NCI-H460/TPT10 cells

pEC50 (ABCG2 [1])	SMILES	[3H]-mitoxantrone accumulation in NCI-H460 and NCI-H460/TPT10 cells, restored by (ABCG2 [2])
5.75	NS(=O)(=O)OC[C@H]1C[C@@H](Nc2ccnc3cc(-c4cccc(SC(F)(F)F)c4)nn23)[C@H](O)[C@@H]1O [MLN7243]	
	O=C1c2c(O)ccc(O)c2C(=O)c2c(NCCNCCO)ccc(NCCNCCO)c21 [mitoxantrone]	suggesting a large portion of mitoxantrone was pumped out from the cells by ABCG2 transporter
